Measured values from ChEMBL document CHEMBL1131686, “Synthesis and biological activities of topoisomerase I inhibitors, 6-N-amino analogues of NB-506” (Bioorg Med Chem Lett, 1999).
pEC50, pIC50: −log10 of the molar value.

Key:
Mus musculus = assay: Cytotoxicity against human stomach cancer cells (MKN-45) implanted subcutaneously into a side flank of nude mice; format: functional, Cancer cell lines
[1] = Ratio of LD10 to that of GID75 was determined; expressed as safety margin; format: functional
P388 [2] = assay: In vitro cytotoxicity (CTX) against murine leukemia cells (P388) using colorimetric tetrazolium-formazan method; format: functional, cell-based; settings: Mus musculus
[3] = molecular target: Protein kinase C alpha type (Homo sapiens, UniProt P17252); assay: In vitro activity evaluated against protein kinase C (using histone II-As as a substrate)
DNA topoisomerase II = DNA topoisomerase II (Homo sapiens, UniProt P11388+Q02880); assay: In vitro activity against topoisomerase-2 mediated cleavage of supercoiled pBR322 plasmid DNA; format: functional
[4] = Lethal dose after intravenous administration (5 times/week for 2 weeks after tumor grew to 0.2 cme3 or larger) in mice; format: toxicity; settings: mouse, in vivo, 336 h
MKN-45 [5] = assay: Cytotoxicity against human stomach cancer cells (MKN-45) after intravenous administration (5 times/week for 2 weeks after tumor grew to 0.2 cme3 or larger); format: functional, cell-based; settings: MKN-45, 336 h
P388 [6] = assay: Effect on the formation of protein-DNA complex in P388 cells K+/SDS method; format: functional, Mus musculus
[7] = molecular target: Epidermal growth factor receptor (Homo sapiens, UniProt P00533); assay: In vitro activity against Epidermal growth factor receptor (using poly(Glu4Tyr1) as a substrate)
Chain of Epidermal growth factor receptor (P00533 whole entry): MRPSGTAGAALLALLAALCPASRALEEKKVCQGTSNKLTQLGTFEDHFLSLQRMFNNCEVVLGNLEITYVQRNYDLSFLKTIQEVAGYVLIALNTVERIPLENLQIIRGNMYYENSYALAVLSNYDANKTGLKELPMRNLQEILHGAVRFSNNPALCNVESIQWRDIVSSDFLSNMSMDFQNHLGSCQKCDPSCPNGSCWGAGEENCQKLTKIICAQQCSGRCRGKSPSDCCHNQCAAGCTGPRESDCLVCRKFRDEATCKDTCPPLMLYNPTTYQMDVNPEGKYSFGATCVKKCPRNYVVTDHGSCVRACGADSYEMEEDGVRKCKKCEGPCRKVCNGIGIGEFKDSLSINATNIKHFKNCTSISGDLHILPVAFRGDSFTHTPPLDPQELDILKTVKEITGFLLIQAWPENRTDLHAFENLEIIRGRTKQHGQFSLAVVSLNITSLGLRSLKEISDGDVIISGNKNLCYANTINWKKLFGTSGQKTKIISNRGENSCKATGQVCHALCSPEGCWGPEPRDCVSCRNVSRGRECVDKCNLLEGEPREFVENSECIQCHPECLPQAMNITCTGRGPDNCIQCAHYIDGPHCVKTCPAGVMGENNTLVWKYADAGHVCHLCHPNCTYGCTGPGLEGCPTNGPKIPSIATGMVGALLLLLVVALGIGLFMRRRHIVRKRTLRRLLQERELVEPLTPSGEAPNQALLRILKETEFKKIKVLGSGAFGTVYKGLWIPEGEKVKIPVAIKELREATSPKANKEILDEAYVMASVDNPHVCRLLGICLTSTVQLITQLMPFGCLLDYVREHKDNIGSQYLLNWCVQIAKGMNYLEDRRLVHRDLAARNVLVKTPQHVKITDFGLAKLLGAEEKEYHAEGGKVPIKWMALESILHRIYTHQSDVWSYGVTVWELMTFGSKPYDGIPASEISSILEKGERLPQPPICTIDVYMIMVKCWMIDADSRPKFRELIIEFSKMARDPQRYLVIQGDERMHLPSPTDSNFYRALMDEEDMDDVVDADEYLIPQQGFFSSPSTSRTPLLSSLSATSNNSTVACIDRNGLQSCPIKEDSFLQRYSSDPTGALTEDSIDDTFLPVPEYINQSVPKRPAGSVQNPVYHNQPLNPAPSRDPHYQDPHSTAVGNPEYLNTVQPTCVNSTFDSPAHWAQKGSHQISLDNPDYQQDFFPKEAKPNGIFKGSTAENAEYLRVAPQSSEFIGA

MKN-45 [8] = assay: In vitro cytotoxicity (CTX) against human stomach cancer cells (MKN-45) using sulforhodamine B dye-staining method; format: functional, cell-based
DNA topoisomerase 1 = molecular target: T1, DNA topoisomerase 1 (Homo sapiens, UniProt P11387); assay: In vitro activity against topoisomerase-1 mediated cleavage of supercoiled pBR322 plasmid DNA; format: functional
T1 sequence (P11387 whole entry): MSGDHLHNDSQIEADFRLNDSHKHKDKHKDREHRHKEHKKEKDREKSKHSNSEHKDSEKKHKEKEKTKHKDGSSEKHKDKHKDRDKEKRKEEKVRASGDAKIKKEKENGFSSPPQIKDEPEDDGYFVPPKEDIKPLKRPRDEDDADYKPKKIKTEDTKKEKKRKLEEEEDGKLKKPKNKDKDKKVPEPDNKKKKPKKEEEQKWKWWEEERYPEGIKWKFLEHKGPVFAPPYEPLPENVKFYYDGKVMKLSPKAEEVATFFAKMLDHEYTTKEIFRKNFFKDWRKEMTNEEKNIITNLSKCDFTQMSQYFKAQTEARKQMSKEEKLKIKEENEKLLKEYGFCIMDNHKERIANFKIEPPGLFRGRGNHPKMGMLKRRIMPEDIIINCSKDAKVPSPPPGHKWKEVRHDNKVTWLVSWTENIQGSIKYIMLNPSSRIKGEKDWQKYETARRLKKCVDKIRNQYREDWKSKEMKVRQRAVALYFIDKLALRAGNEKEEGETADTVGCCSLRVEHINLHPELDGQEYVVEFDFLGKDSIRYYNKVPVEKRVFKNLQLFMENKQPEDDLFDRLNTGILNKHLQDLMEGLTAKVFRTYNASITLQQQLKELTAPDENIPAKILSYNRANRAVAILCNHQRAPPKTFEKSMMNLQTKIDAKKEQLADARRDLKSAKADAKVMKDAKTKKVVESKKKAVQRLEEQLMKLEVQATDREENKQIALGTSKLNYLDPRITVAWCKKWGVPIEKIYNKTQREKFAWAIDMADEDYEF

O=CNN1C(=O)c2c(c3c4cccc(O)c4n(C4OC(CO)C(O)C(O)C4O)c3c3[nH]c4c(O)cccc4c23)C1=O (stereo unspecified)
GID75 (Mus musculus): 1152 mg/me2
Activity [1]: 1.4 Ratio
pIC50 (P388 [2]): 7.12
pIC50 [3]: < 3.70
EC50 (DNA topoisomerase II): > 50000 nM
LD10 [4]: 1600 mg/me2
pIC50 (MKN-45 [5]): 6.51
EC200 (P388 [6]): 1.4 µM
pIC50 [7]: < 3.70
pIC50 (MKN-45 [8]): 6.51
pEC50 (DNA topoisomerase 1): 6.15
